Reference: patent publication US20250163032A1, “NOVEL MOLECULES AS INHIBITORS OF DNA DAMAGE REPAIR PATHWAY” (VRise Therapeutics, Inc., priority 2023, published 2025)

Key:
[1] = Metabolic stability, mouse liver microsomes; type: in vitro ADME; conditions: pH 7.4, 1 μM test item, 1 mM NADPH, 60 minutes
Experimental: (§1) Test-8: Metabolic Stability
(§2) Metabolic stability studies were conducted using mouse, rat, and human liver microsomes. The protocol for the studies with mouse and human liver microsomes (Gibco-Thermo) is provided below.
(§3) In brief, 0.25 mg protein was preincubated in phosphate buffer (pH˜7.4) for 5 min at 37° C. and then added with 1 μM test item followed by addition of 1 mM NADPH (cof actor) and incubated further over a period 60 minutes in duplicate. The reaction mixture was terminated with acetonitrile containing an internal standard and centrifuged further to analyse the test item remaining in the supernatant by LC-MS/MS at different intervals. The percent parent compound remaining was calculated in comparison with similar samples terminated at 0 minutes.

USP1/UAF1 = USP1/UAF1 (Homo sapiens, UniProt O94782); test: USP1/UAF 1 assay (ubiquitin-rhodamine110 fluorometric deubiquitinase assay); type: biochemical; conditions: for inhibition at 1 µM: read-out: Biochemical assay % inhibition @1 μM; for IC50: 1 nM USP1/UAF1, 150 nM Ub-Rho, read-out: Biochemical assay IC50
USP1/UAF1, sequence (O94782 whole entry): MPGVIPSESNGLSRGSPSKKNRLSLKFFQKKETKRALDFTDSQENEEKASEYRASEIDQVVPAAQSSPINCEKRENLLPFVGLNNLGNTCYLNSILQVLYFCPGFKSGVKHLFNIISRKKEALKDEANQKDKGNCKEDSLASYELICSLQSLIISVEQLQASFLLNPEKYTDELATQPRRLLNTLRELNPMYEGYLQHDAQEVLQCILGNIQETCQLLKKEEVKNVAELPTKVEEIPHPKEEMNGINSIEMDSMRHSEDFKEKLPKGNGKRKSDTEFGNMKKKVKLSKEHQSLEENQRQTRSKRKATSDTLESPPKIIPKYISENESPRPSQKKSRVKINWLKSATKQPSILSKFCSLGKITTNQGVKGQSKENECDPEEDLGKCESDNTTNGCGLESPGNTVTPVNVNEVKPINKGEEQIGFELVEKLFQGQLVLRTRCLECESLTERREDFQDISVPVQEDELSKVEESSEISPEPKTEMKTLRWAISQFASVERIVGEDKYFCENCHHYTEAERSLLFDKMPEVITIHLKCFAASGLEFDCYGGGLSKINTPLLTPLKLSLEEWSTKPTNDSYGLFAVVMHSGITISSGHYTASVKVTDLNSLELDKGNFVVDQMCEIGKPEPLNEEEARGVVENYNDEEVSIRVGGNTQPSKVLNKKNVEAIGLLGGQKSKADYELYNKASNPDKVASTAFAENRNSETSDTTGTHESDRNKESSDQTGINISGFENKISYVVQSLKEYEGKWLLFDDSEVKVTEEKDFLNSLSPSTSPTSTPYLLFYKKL
USP1/UAF1, sequence (Q8TAF3 whole entry partner): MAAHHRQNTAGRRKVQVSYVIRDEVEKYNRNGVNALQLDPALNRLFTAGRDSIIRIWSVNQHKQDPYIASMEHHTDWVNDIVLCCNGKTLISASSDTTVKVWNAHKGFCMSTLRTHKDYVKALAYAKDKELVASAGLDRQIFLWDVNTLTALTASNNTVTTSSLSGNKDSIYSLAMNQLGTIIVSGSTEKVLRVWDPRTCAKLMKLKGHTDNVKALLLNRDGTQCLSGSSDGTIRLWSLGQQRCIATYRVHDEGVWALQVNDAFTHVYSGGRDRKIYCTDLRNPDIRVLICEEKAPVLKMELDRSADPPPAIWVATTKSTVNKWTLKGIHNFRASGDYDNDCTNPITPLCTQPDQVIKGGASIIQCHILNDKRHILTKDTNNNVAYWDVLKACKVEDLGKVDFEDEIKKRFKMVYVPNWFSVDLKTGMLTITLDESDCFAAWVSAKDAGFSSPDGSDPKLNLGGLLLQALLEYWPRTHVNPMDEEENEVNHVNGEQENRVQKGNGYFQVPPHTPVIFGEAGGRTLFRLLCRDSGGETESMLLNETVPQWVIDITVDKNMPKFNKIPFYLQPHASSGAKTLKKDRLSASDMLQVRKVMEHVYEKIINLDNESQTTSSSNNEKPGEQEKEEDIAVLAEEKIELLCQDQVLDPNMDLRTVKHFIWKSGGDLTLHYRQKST
Experimental: Test-1: USP1/UAF 1 Assay:
Deubiquitinase activity of USP1/UAF1 was monitored in a fluorometric assay using ubiquitin-rhodamine110 as substrate. Briefly, enzymatic reactions were conducted in an assay buffer composed of 50 mM HEPES, pH 7.8, 0.5 mM EDTA, 100 mM NaCl, 1 mM TCEP, 0.1 mg/mL BSA, and 0.01% Tween-20 that contained 1 nM USP1/UAF1. Compounds were tested at desired concentrations. The plates were incubated for 15 min to attain equilibrium, and then the enzymatic reaction was initiated by dispensing 150 nM Ub-Rho solution. Fluorescence measurement was performed in a high throughput CCD imager, where kinetic measurements of rhodamine fluorescence were acquired using a 480 nm excitation/540 nm emission filter set. The change in fluorescence intensity over a 5-minute reaction period (typically associated with less than 10% substrate conversion) was normalized against no-inhibitor and no-enzyme controls and the resulting percent inhibition data were fitted to a sigmoidal dose response using a four-parameter Hill equation. Data was be analysed and percent inhibition and/or IC50 for each test compound is calculated accordingly.

[2] = Metabolic stability, human liver microsomes; type: in vitro ADME; conditions: pH 7.4, 1 μM test item, 1 mM NADPH, 60 minutes
Experimental: as §1, §2, §3

MD-MBA-436 = test: Cell viability assay (CTG assay); type: cell-based, human; conditions: 7th day
Experimental: Test 5: Cell Viability Assay (CTG Assay):
Growth inhibition assays was carried out using […] supplemented media. Cells were seeded at a desired concentration of 1000-6,000 cells/well in a well plate with desired number of wells. Test compounds at a desired concentration range were added after 24 hours. Growth was assessed using the Cell Titer-Glo (CTG, Cell Signaling) for measuring reduction at 7th day after the addition of test compound chemiluminescence values were read by a plate reader. Data was be analysed and percent inhibition and/or IC50 for each test compound is calculated accordingly.

Row | inhibition at 1 µM (USP1/UAF1) | Structure (SMILES) | further results
1 | 25 to 50% | CC(C)c1ccccc1-c1nc2c(c(OCc3ccc(-c4nc(C(F)(F)F)cn4C(C)C)cc3)n1)CCC2 [Example 13, 4-((4-(1-isopropyl-4-(trifluoromethyl)-1H-imidazol-2-yl)benzyl)oxy)-2-(2-isopropylphenyl)-6,7-dihydro-5H-cyclopenta[d]pyrimidine] | half-life at 1 μM [1]: 9.76 min
2 | 25 to 50% | CC(C)c1ccccc1-c1nc2c(c(N(Cc3ccc(-c4nc(C(F)(F)F)cn4C(C)C)cc3)C(=O)N(C)C)n1)CCC2 [Example 14, 1-(4-(1-isopropyl-4-(trifluoromethyl)-1H-imidazol-2-yl)benzyl)-1-(2-(2-isopropylphenyl)-6,7-dihydro-5H-cyclopenta[d]pyrimidin-4-yl)-3,3-dimethylurea] | half-life at 1 μM [2]: 3.21 min
3 |  | CC(C)n1cc(C(F)(F)F)nc1-c1ccc(CNc2nc(-c3c(OC(F)F)ncnc3C3CC3)nc3c2CCC3)cc1 [Example 11, 2-(4-cyclopropyl-6-(difluoromethoxy)pyrimidin-5-yl)-N-(4-(1-isopropyl-4-(trifluoromethyl)-1H-imidazol-2-yl)benzyl)-6,7-dihydro-5H-cyclopenta[d]pyrimidin-4-amine] | half-life at 1 μM [1]: 45.5 min; MD-MBA-436 % inhibition@10 μM (MD-MBA-436; @10 μM): A#; IC50 (USP1/UAF1): < 50 nM
4 | 50 to 75% | COc1ncnc(C2CC2)c1-c1nc(NCc2ccc(-c3nc(C(F)(F)F)cn3C)cc2)c2ncn(C3CCCCO3)c2n1 (stereo not shown) [Example 19, 2-(4-cyclopropyl-6-methoxypyrimidin-5-yl)-N-(4-(1-methyl-4-(trifluoromethyl)-1H-imidazol-2-yl)benzyl)-9-(tetrahydro-2H-pyran-2-yl)-9H-purin-6-amine] | inhibition at 10 µM (MD-MBA-436; Homo sapiens, @10 μM): 75 to 100%
5 |  | COc1cccc(F)c1-c1nc(OCc2ccc(-c3nc(C(F)(F)F)cn3C)cc2)c2ncn(C3CCCCO3)c2n1 (stereo not shown) [Example 27, 2-(2-fluoro-6-methoxyphenyl)-6-((4-(1-methyl-4-(trifluoromethyl)-1H-imidazol-2-yl)benzyl)oxy)-9-(tetrahydro-2H-pyran-2-yl)-9H-purine] | half-life at 1 μM [1]: 122 min
6 |  | COc1ncnc(C2CC2)c1-c1nc(NCc2ccc(-c3nc(C(F)(F)F)cn3C(C)C)cc2)c2cccn2n1 [Example 22, 2-(4-cyclopropyl-6-methoxypyrimidin-5-yl)-N-(4-(1-isopropyl-4-(trifluoromethyl)-1H-imidazol-2-yl)benzyl)pyrrolo[2,1-f][1,2,4]triazin-4-amine] | IC50 (MD-MBA-436; Homo sapiens): 50 to 100 nM; IC50 (USP1/UAF1): < 50 nM
7 | 50 to 75% | Cc1cccc(-c2nc(NCc3ccc(-c4nc(C(F)(F)F)cn4C)cc3)c3[nH]cnc3n2)c1Cl [Example 38, 2-(2-chloro-3-methylphenyl)-N-(4-(1-methyl-4-(trifluoromethyl)-1H-imidazol-2-yl)benzyl)-7H-purin-6-amine] | 
8 | 50 to 75% | Cn1cc(C(F)(F)F)nc1-c1ccc(CNc2nc(-c3cc(Cl)ccc3F)nc3c2CCC3)cc1 [Example 61, 2-(5-chloro-2-fluorophenyl)-N-(4-(1-methyl-4-(trifluoromethyl)-1H-imidazol-2-yl)benzyl)-6,7-dihydro-5H-cyclopenta[d]pyrimidin-4-amine] | 
9 | 25 to 50% | Cn1cc(C(F)(F)F)nc1-c1ccc(CNc2nc(-c3ccc(-c4ccccc4)cc3)nc3c2CCC3)cc1 [Example 64, 2-([1,1′-biphenyl]-4-yl)-N-(4-(1-methyl-4-(trifluoromethyl)-1H-imidazol-2-yl)benzyl)-6,7-dihydro-5H-cyclopenta[d]pyrimidin-4-amine] | 
10 | 50 to 75% | Cn1cc(C(F)(F)F)nc1-c1ccc(CNc2nc(-c3cc(F)cc(F)c3F)nc3c2CCC3)cc1 [Example 74, N-(4-(1-methyl-4-(trifluoromethyl)-1H-imidazol-2-yl)benzyl)-2-(2,3,5-trifluorophenyl)-6,7-dihydro-5H-cyclopenta[d]pyrimidin-4-amine] | 
11 |  | CC(C)c1ccccc1-c1nc(NCc2ccc(-c3nc(C(F)(F)F)cn3C)cc2)c2cccn2n1 [Example 5, 2-(2-isopropylphenyl)-N-(4-(1-methyl-4-(trifluoromethyl)-1H-imidazol-2-yl)benzyl)pyrrolo[2,1-f][1,2,4]triazin-4-amine] | IC50 (MD-MBA-436; Homo sapiens): ≥ 1000 nM; IC50 (USP1/UAF1): < 50 nM
12 | 50 to 75% | CSc1ccc(-c2nc(NCc3ccc(-c4nc(C(F)(F)F)cn4C)cc3)c3[nH]cnc3n2)cc1 [Example 56, N-(4-(1-methyl-4-(trifluoromethyl)-1H-imidazol-2-yl)benzyl)-2-(4-(methylthio)phenyl)-7H-purin-6-amine] | 
13 |  | CC(C)c1ccccc1-c1nc2c(c(NCc3ccc(-c4nc(C(F)(F)F)cn4C)cc3)c1C#N)CCC2 [Example 20, 2-(2-isopropylphenyl)-4-((4-(1-methyl-4-(trifluoromethyl)-1H-imidazol-2-yl)benzyl)amino)-6,7-dihydro-5H-cyclopenta[b]pyridine-3-carbonitrile] | IC50 (USP1/UAF1): 100 to 1000 nM
14 | 50 to 75% | COc1ccc(-c2nc(NCc3ccc(-c4nc(C(F)(F)F)cn4C)cc3)c3[nH]cnc3n2)c(OC)n1 [Example 43, 2-(2,6-dimethoxypyridin-3-yl)-N-(4-(1-methyl-4-(trifluoromethyl)-1H-imidazol-2-yl)benzyl)-7H-purin-6-amine] | 
15 | 50 to 75% | Cn1cc(C(F)(F)F)nc1-c1ccc(CNc2nc(-c3ccc(Cl)cc3Cl)nc3nc[nH]c23)cc1 [Example 42, 2-(2,4-dichlorophenyl)-N-(4-(1-methyl-4-(trifluoromethyl)-1H-imidazol-2-yl)benzyl)-7H-purin-6-amine] | 
16 |  | CC(C)c1ccccc1-c1nc(NCc2ccc(-c3nc(C(F)(F)F)cn3C)cc2)c2ncn(C3CCCCO3)c2n1 (stereo not shown) [Example 18, 2-(2-isopropylphenyl)-N-(4-(1-methyl-4-(trifluoromethyl)-1H-imidazol-2-yl)benzyl)-9-(tetrahydro-2H-pyran-2-yl)-9H-purin-6-amine] | Biochemical assay % inhibition @1 μM (USP1/UAF1; @1 μM): B+++
17 | > 75% | Cn1cc(C(F)(F)F)nc1-c1ccc(CNc2nc(Cl)nc3c2ncn3C2CCCCO2)cc1 (stereo not shown) [Example 17, 2-chloro-N-(4-(1-methyl-4-(trifluoromethyl)-1H-imidazol-2-yl)benzyl)-9-(tetrahydro-2H-pyran-2-yl)-9H-purin-6-amine] | 
18 | 50 to 75% | Cn1cc(C(F)(F)F)nc1-c1ccc(CNc2nc(-c3ccc(C#N)cc3)nc3c2CCC3)cc1 [Example 63, 4-(4-((4-(1-methyl-4-(trifluoromethyl)-1H-imidazol-2-yl)benzyl)amino)-6,7-dihydro-5H-cyclopenta[d]pyrimidin-2-yl)benzonitrile] | 
19 | 50 to 75% | COc1ccc(OC)c(-c2nc3c(c(NCc4ccc(-c5nc(C(F)(F)F)cn5C)cc4)n2)CCC3)c1 [Example 66, 2-(2,5-dimethoxyphenyl)-N-(4-(1-methyl-4-(trifluoromethyl)-1H-imidazol-2-yl)benzyl)-6,7-dihydro-5H-cyclopenta[d]pyrimidin-4-amine] | 
20 | 50 to 75% | Cn1cc(C(F)(F)F)nc1-c1ccc(CNc2nc(-c3ccc(OC(F)(F)F)cc3)nc3nc[nH]c23)cc1 [Example 47, N-(4-(1-methyl-4-(trifluoromethyl)-1H-imidazol-2-yl)benzyl)-2-(4-(trifluoromethoxy)phenyl)-7H-purin-6-amine] | 
21 | 50 to 75% | CCOc1ccc(-c2nc3c(c(NCc4ccc(-c5nc(C(F)(F)F)cn5C)cc4)n2)CCC3)cn1 [Example 62, 2-(6-ethoxypyridin-3-yl)-N-(4-(1-methyl-4-(trifluoromethyl)-1H-imidazol-2-yl)benzyl)-6,7-dihydro-5H-cyclopenta[d]pyrimidin-4-amine] | 
22 | 50 to 75% | Cn1cc(C(F)(F)F)nc1-c1ccc(CNc2nc(-c3cccc(C(N)=O)c3)nc3c2CCC3)cc1 [Example 72, 3-(4-((4-(1-methyl-4-(trifluoromethyl)-1H-imidazol-2-yl)benzyl)amino)-6,7-dihydro-5H-cyclopenta[d]pyrimidin-2-yl)benzamide] | 
23 | 50 to 75% | COc1ccc(-c2nc3c(c(NCc4ccc(-c5nc(C(F)(F)F)cn5C)cc4)n2)CCC3)c(OC)c1 [Example 68, 2-(2,4-dimethoxyphenyl)-N-(4-(1-methyl-4-(trifluoromethyl)-1H-imidazol-2-yl)benzyl)-6,7-dihydro-5H-cyclopenta[d]pyrimidin-4-amine] | 
24 | 50 to 75% | Cn1cc(C(F)(F)F)nc1-c1ccc(CNc2nc(-c3ccccc3C(F)(F)F)nc3nc[nH]c23)cc1 [Example 45, N-(4-(1-methyl-4-(trifluoromethyl)-1H-imidazol-2-yl)benzyl)-2-(2-(trifluoromethyl)phenyl)-7H-purin-6-amine] | 
